Measured values as given in patent US20140228430A1, “Method of Accelerating Corneal Wound Healing” (Alcon Research, Ltd., priority 2010, published 2014).

System: Rat Model of Corneal Injury
Experiment: Rat model of corneal injury (corneal epithelial wound closure)
Format: in vivo
Conditions: topical ocular 5 μl every 2 hrs for first 8 hrs, female Lewis rats, compared with positive control 0.4% HA; for normalized number of completely healed eyes (Healed 24 hours n=10): number/10 eyes
Experimental: Female Lewis rats (175-200 g) were anesthetized with a xylazine/ketamine cocktail (5 mg/kg and 50 mg/kg respectively). A 3 mm diameter circle was superficially demarcated on the central cornea using a 3 mm trephine. Using a corneal rust ring remover (AlgerbrushΠ Alger Co.) tipped with a 1 mm steel burr; the corneal epithelium was removed to the basement membrane within the established 3 mm boundary Immediately following epithelial removal, the corneas were topically stained with 2% sodium fluorescein (Alcon), washed with balanced saline (BSS) and Time 0 hrs images acquired. After 24 hrs, animals were again anesthetized and Time 24 hrs images were acquired.
Immediately after acquisition of Time 0 images, test articles (5 μl) were topically administered to the ocular surface. Animals received topical administration every 2 hrs for the first 8 hrs of the 24 hrs study time. A 0.4% solution of Hyaluronic Acid (HA) was prepared in phosphate-buffered saline (PBS). Compounds 1 and 5 were prepared in PBS and stored at −70° C. until use. During dosing, compounds were stored at 4° C.
Anesthetized rats (Time 0: xylazine/ketamine; Time 24 hrs: 5% isoflurane gas). The area of the cornea devoid of epithelial cells was stained by topical application of a 2% sodium fluorescein solution (Alcon), followed 10 seconds later with a thorough rinsing with BSS. Images from stained eyes were collected with a Canon digital camera fitted with a macro and close-up lens such that the cornea filled almost the entire image field. A continuous and flash illumination was provided with a Novoflex Cold Light Source Macrolight Plus illuminator. The continuous source was used to focus the eye with the aid of the video output of the Canon camera. A flash lamp illuminator and ring light attached to the camera lens system provided a synchronized and uniform illumination of the corneal surface. Eyes were illuminated and images were captured through a set of filters designed for fluorescein excitation (482±35 nm) and emission (536±40 nm).
Two image files were recorded for each exposure, a JPG-format RGB (red-green-blue) file used for image display and a Canon Raw file containing the raw sensor data. The raw data was extracted to a 16-bit portable greymap file that was subsequently processed with a demosaic function to make an image of only the green pixels containing the fluorescein information. A circular region of interest (ROI) was centered on the cornea and the automated analysis was performed using RatOSIWound v 2.0 software (Alcon). Automated analysis calculated the total fluorescein positive area of a single large spot indicative of the epithelial wound. The % closure at 24 hours (indicated as “% Closure 24 hours” on the ordinate axis of the graphs in FIGS. 1 and 3) was calculated as
while the number of eyes that were totally healed (that is, had no detectable defect; indicated as “Healed 24 hours n=10” on the ordinate axis of the graphs in FIGS. 2 and 4), normalized as number/10 eyes, was also determined
Data were analyzed using an ANOVA with a Dunnett post-hoc test at a 95% confidence interval.

Structure (SMILES) | % wound closure (% Closure 24 hours) (0.5% w/v dose in PBS) | normalized number of completely healed eyes (Healed 24 hours n=10) (0.5% w/v dose in PBS) | % wound closure (% Closure 24 hours) (1% w/v dose in PBS) | normalized number of completely healed eyes (Healed 24 hours n=10) (1% w/v dose in PBS)
COC(=O)CCC[C@H](O)[C@H](O)CO [compound 1] | as effective as the positive control 0.4% HA | as effective as the positive control 0.4% HA | as effective as the positive control 0.4% HA | as effective as the positive control 0.4% HA
O=C([O-])CCC[C@H](O)[C@H](O)CO.[Li+] [compound 5] | – | – | as effective as the positive control 0.4% HA | as effective as the positive control 0.4% HA
